Test results: patent US7189760B2, “Physiological cooling compositions containing highly purified ethyl ester of N-[[5-methyl-2-(1-methylethyl) cyclohexyl] carbonyl]glycine” (Millennium Specialty Chemicals, priority 2004, dated 2007)

How the values were obtained:
[1] = lower threshold = stronger coolant; data of U.S. Pat. Nos. 4,060,091 etc.; cited from earlier work
[2] = cited from earlier work; for sensitivity threshold (corrected data): J. Soc. Cosmet. Chem., 1978, vol. 29, pp. 185–200
[3] = visual and organoleptic test of aqueous solution of the product; type: in vivo; conditions: 25 ppm aqueous solution
From the text: (§1) Further, the aqueous solutions of products for organoleptic tests were obtained by dissolving appropriate amounts of the products in dipropylene glycol DPG and adding the solution in DPG to an appropriate amount of water.

[4] = comparison of cooling strength to WS-3 in oral application; type: in vivo; conditions: for cooling strength relative to WS-3 (times stronger): aqueous solutions, vs 10 ppm WS-3
Method: as §1
A comparison basis aqueous solution of WS-3 (compound 5) was prepared containing 10 ppm concentration of WS-3.
Aqueous solutions were prepared containing various concentrations of the purified compound 10: 2 ppm, 3 ppm, 4 ppm, 5 ppm, and higher. These solutions were tested in oral application in comparison to the basis solution of 10 ppm of WS-3.
Aqueous solutions were prepared containing various concentrations of the purified compound 10: 2 ppm, 3 ppm, 3.5 ppm, 4 ppm, 5 ppm, and higher. These solutions were tested in oral application in comparison to the basis solution of 10 ppm of WS-3.

[5] = sensitivity threshold (cooling strength) of N-monosubstituted p-menthane-3-carboxamides, prior-art patents; type: in vivo; conditions: from patent thresholds 0.2 vs 0.3 μg
From the text: With specific reference to structure 6, substituent “X” is commonly selected from the lower linear or branched alkyl substituents, functionally substituted alkyl substituents, or aryl substituents. To that end, U.S. Pat. Nos. 4,060,091; 4,136,163; 4,150,052; 4,178,459; 4,193,936; and 4,226,988, the entire disclosures of which are hereby incorporated by reference for all purposes, give a comparison of cooling strengths of certain N-monosubstituted p-menthane-3-carboxamides numerically expressed as sensitivity thresholds in μg, wherein a lower threshold value correlates to a stronger coolant effect. Of the compared compounds, the only commercially used N-monosubstituted p-menthane-3-carboxamide compound is the WS-3 coolant, having a sensitivity threshold of 0.3 μg.

[6] = volatility; type: physicochemical; conditions: compared with menthol

| Compound | sensitivity threshold [1] [µg] | tingling/cooling sensation [3] | other results |
| --- | --- | --- | --- |
| CCNC(=O)C1C[C@H](C)CCC1C(C)C (stereo in doubt) [WS-3, N-ethyl-p-menthane-3-carboxamide, reference compound] | 0.3 | – | sensitivity threshold (corrected data) [2]: 0.2 µg |
| CCOC(=O)CNC(=O)C1CC(C)CCC1C(C)C (stereo not drawn) [Comparative Synthetic and Organoleptic Example 1] [ethyl ester of N-[[5-methyl-2-(1-methylethyl)cyclohexyl]carbonyl]glycine, reference compound] | – | noticeable tingling/cooling sensation | – |
| CCOC(=O)CNC(=O)C1CC(C)CCC1C(C)C (stereo not drawn) [Comparative Synthetic and Organoleptic Example 2 after the a] [ethyl ester of N-[[5-methyl-2-(1-methylethyl)cyclohexyl]carbonyl]glycine, reference compound] | – | strong tingling/cooling sensation | – |
| CCOC(=O)CNC(=O)C1CC(C)CCC1C(C)C (stereo not drawn) [Comparative Synthetic and Organoleptic Example 2] [ethyl ester of N-[[5-methyl-2-(1-methylethyl)cyclohexyl]carbonyl]glycine, reference compound] | – | strong tingling/cooling sensation | – |
| CCOC(=O)CNC(=O)C1CC(C)CCC1C(C)C (stereo not drawn) [Inventive Example 1, ethyl ester of N-[[5-methyl-2-(1-methylethyl)cyclohexyl]carbonyl]glycine] | – | very strong tingling/cooling sensation | cooling effect compared to basis solution of 10 ppm WS-3 ([4]; 4 ppm aqueous solution): approximately equal cooling effect; cooling effect compared to basis solution of 10 ppm WS-3 ([4]; 5 ppm aqueous solution): stronger and longer lasting cooling effect; cooling strength relative to WS-3 (times stronger) [4]: approximately 2.5 times |
| CCOC(=O)CNC(=O)C1CC(C)CCC1C(C)C (stereo not drawn) [Inventive Example 2, ethyl ester of N-[[5-methyl-2-(1-methylethyl)cyclohexyl]carbonyl]glycine] | – | very strong tingling/cooling sensation | – |
| CCOC(=O)CNC(=O)C1CC(C)CCC1C(C)C (stereo not drawn) [Inventive Example 3 (A), ethyl ester of N-[[5-methyl-2-(1-methylethyl)cyclohexyl]carbonyl]glycine] | – | very strong tingling/cooling sensation | – |
| CCOC(=O)CNC(=O)C1CC(C)CCC1C(C)C (stereo not drawn) [Inventive Example 3, ethyl ester of N-[[5-methyl-2-(1-methylethyl)cyclohexyl]carbonyl]glycine] | – | – | cooling effect compared to basis solution of 10 ppm WS-3 ([4]; 3.5 ppm aqueous solution): approximately equal cooling effect; cooling effect compared to basis solution of 10 ppm WS-3 ([4]; 4 ppm aqueous solution): stronger and longer lasting cooling effect; cooling strength relative to WS-3 (times stronger) [4]: approximately 3 times; tingling/cooling sensation ([3]; listed as Inventive Example 3 (B)): extremely strong and pleasant tingling/cooling sensation |
| CCOC(=O)CNC(=O)C1CC(C)CCC1C(C)C (stereo not drawn) [Inventive Example 4, ethyl ester of N-[[5-methyl-2-(1-methylethyl)cyclohexyl]carbonyl]glycine] | – | very strong tingling/cooling sensation | – |
| CCOC(=O)CNC(=O)C1CC(C)CCC1C(C)C (stereo not drawn) [Inventive Example 5, ethyl ester of N-[[5-methyl-2-(1-methylethyl)cyclohexyl]carbonyl]glycine] | – | very strong tingling/cooling sensation | – |
| Cc1ccc(NC(=O)C2CC(C)CCC2C(C)C)cc1C (stereo not drawn) [compound 7] | 0.1 | – | – |
| Cc1ccc(NC(=O)C2CC(C)CCC2C(C)C)cc1O (stereo not drawn) [compound 8] | 0.1 | – | – |
| CCOC(=O)CNC(=O)C1CC(C)CCC1C(C)C (stereo not drawn) [compound 10, ethyl ester of N-[[5-methyl-2-(1-methylethyl)cyclohexyl]carbonyl]glycine] | 0.2 | – | cooling strength relative to WS-3 (times stronger) [5]: 1.5 times; volatility [6]: much lower volatility than menthol; sensitivity threshold (corrected data) [2]: 0.13 µg; cooling strength relative to compound 5 (times stronger) ([2]; from corrected thresholds 0.13 vs 0.2 μg): approximately 1.5 times |
